The target of data set [1] is Platelet-derived growth factor receptor beta (Homo sapiens, UniProt P09619). In words: Inhibition of PDGFRbeta (unknown origin).
Data set [2] concerns the target Platelet-derived growth factor receptor alpha (Homo sapiens, UniProt P16234). In words: Inhibition of PDGFRalpha (unknown origin).
Data set [3] can be described thus: Toxicity in BALB/c mouse xenografted with MDA-MB-231 cells assessed as LDH level in blood at 300 mg/kg, po. Conditions: in vivo. It is filed as organism-based.
Data set [4] in a line: Toxicity in BALB/c mouse xenografted with MDA-MB-231 cells assessed as change in spleen at 300 mg/kg, po by hematoxylin and eosin staining based analysis. Type of data set: organism-based. The conditions noted are these: in vivo.
Data set [5] concerns HDLEC. In words: Inhibition of cell migration in VEGF-C-induced human dermal lymphatic endothelial cells assessed as cell migration at 100 nM incubated for 24 hrs by inverted microscopy based by scratch wound healing assay. It is filed as functional, tissue-based.
Data set [6] is described as follows: Toxicity in BALB/c mouse xenografted with MDA-MB-231 cells assessed as change in lung at 300 mg/kg, po by hematoxylin and eosin staining based analysis. Type of data set: organism-based. The conditions noted are these: in vivo.
In another data set the test system is MDA-MB-436. In words: Anticancer activity against human MDA-MB-436 cells assessed as cell viability incubated for 48 hrs by MTT assay. Conditions: MDA-MB-436, 48 h. For orientation: Formazan colour is commonly taken as a measure of viable cells.
The nature of data set [7]: Toxicity in BALB/c mouse xenografted with MDA-MB-231 cells assessed as effect on body weight at 50 mg/kg, po. Conditions: in vivo. It is filed as organism-based.
Data set [8] is described as follows: Toxicity in BALB/c mouse xenografted with MDA-MB-231 cells assessed as uric acid level in blood at 300 mg/kg, po. Type of data set: organism-based. Conditions: in vivo.
A short description of data set [9]: Toxicity in BALB/c mouse xenografted with MDA-MB-231 cells assessed as change in liver at 300 mg/kg, po by hematoxylin and eosin staining based analysis. Conditions: in vivo. Type of data set: organism-based.
A short description of data set [10]: Antiproliferative activity against VEGF-D-induced human dermal lymphatic endothelial cells assessed as cell viability incubated for 48 hrs by CCK-8 assay. Type of data set: functional, tissue-based. The conditions noted are these: HDLEC.
The test system of data set [11] is MDA-MB-231. In words: Anticancer activity against human MDA-MB-231 cells assessed as cell viability incubated for 48 hrs by MTT assay. Conditions: MDA-MB-231, 48 h.
Data set [12] can be described thus: Toxicity in BALB/c mouse xenografted with MDA-MB-231 cells assessed as creatinine level in blood at 300 mg/kg, po. Conditions: in vivo. It is filed as organism-based.
The subject of data set [13] is HDLEC. In words: Antimigratory activity against VEGF-C-induced human dermal lymphatic endothelial cells assessed as cell migration at 100 nM incubated for 12 hrs by inverted microscopy based by transwell assay. It is filed as functional, tissue-based.
A short description of data set [14]: Toxicity in BALB/c mouse xenografted with MDA-MB-231 cells assessed as change in heart at 300 mg/kg, po by hematoxylin and eosin staining based analysis. Type of data set: organism-based. Conditions: in vivo.
Data set [15] has as its system MDA-MB-231. In words: Antimetastatic activity against human MDA-MB-231 cells injected into vein of BALB/c mouse lung metastatic model assessed as less lung metastatic nodules at 25 mg/kg, po once a day measured on day 21. Type of data set: functional, organism-based. Conditions: time 21.0 day.
A short description of data set [16]: Toxicity in BALB/c mouse xenografted with MDA-MB-231 cells assessed as change in kidney at 300 mg/kg, po by hematoxylin and eosin staining based analysis. Type of data set: organism-based. The conditions noted are these: in vivo.
Data set [17] can be described thus: Toxicity in BALB/c mouse xenografted with MDA-MB-231 cells assessed as change in liver at 25 mg/kg, po by hematoxylin and eosin staining based analysis. Type of data set: organism-based. Conditions: in vivo.
A short description of data set [18]: Toxicity in BALB/c mouse xenografted with MDA-MB-231 cells assessed as ALT level in blood at 300 mg/kg, po. The conditions noted are these: in vivo. It is filed as organism-based.
A short description of data set [19]: Antiproliferative activity against VEGF-C-induced human dermal lymphatic endothelial cells assessed as cell viability incubated for 48 hrs by CCK-8 assay. Type of data set: functional, tissue-based. The conditions noted are these: HDLEC.
Data set [20] relates to HDLEC. In words: Anti-lymphangiogenic activity against human dermal lymphatic endothelial cells assessed as inhibition of VEGF-C-mediated tube formation at 100 nM incubated for 12 hrs by inverted microscopy. It is filed as functional, tissue-based.
The nature of data set [21]: Toxicity in BALB/c mouse xenografted with MDA-MB-231 cells assessed as AST level in blood at 300 mg/kg, po. Type of data set: organism-based. Conditions: in vivo.
Data set [22] addresses Mast/stem cell growth factor receptor Kit (Homo sapiens, UniProt P10721). In words: Inhibition of c-Kit (unknown origin).

Structures are written as SMILES. Active and inactive are the calls of the source. The calls are words filed in the database; no cut-off is given here. Bounds are passed on as bounds.

Platelet-derived growth factor receptor beta, sequence (P09619 whole entry): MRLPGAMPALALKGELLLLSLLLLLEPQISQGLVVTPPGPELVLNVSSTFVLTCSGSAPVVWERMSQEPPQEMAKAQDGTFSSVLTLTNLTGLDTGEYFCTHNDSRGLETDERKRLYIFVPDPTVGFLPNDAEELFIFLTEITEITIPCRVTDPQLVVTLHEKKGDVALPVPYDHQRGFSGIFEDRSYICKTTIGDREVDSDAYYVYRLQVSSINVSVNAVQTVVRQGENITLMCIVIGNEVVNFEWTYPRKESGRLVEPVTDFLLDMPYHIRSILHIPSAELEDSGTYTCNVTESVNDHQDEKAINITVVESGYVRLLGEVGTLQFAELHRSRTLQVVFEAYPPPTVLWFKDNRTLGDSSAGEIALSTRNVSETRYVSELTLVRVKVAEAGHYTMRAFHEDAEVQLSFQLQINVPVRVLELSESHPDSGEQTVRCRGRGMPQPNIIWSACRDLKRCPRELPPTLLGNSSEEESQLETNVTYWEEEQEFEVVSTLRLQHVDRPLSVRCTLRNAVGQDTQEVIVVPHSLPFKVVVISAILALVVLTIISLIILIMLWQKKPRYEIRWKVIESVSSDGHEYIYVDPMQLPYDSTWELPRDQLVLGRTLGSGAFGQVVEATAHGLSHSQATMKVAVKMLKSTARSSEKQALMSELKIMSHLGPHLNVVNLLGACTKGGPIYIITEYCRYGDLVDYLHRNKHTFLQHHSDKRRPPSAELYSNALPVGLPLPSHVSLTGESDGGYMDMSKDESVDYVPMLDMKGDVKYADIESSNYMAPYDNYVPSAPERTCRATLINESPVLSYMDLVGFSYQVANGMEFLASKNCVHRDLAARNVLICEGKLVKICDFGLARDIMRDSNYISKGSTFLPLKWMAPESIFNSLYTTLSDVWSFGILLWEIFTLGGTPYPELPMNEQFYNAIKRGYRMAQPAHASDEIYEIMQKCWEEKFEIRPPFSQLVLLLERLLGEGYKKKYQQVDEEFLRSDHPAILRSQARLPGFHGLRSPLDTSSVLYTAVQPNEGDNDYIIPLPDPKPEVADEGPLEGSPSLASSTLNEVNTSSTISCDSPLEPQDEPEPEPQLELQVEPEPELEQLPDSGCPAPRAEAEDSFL
Mast/stem cell growth factor receptor Kit, sequence (P10721 whole entry): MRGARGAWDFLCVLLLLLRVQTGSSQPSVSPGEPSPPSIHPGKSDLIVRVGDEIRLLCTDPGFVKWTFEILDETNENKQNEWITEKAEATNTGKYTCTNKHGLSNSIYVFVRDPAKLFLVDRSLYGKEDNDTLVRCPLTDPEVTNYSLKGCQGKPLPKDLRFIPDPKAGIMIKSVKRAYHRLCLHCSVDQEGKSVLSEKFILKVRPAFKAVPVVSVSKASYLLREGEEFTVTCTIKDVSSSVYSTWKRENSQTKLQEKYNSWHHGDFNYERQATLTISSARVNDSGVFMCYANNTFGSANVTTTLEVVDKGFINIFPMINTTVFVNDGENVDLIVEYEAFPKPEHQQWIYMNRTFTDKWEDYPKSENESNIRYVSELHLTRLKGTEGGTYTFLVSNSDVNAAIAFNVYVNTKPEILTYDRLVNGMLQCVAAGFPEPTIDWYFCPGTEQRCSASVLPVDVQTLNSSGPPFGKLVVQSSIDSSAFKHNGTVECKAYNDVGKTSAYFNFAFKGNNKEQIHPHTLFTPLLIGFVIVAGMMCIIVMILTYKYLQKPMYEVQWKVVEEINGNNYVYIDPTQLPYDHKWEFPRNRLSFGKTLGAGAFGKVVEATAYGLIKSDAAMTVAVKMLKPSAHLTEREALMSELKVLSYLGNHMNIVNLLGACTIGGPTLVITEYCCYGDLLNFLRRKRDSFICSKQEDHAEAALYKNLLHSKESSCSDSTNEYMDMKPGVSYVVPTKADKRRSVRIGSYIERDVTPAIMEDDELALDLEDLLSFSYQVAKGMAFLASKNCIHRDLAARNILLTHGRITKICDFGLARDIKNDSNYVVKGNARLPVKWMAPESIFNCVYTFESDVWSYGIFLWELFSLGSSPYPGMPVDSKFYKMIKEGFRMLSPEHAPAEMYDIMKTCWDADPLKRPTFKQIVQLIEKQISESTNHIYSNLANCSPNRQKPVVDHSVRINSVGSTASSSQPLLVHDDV
Platelet-derived growth factor receptor alpha, sequence (P16234 whole entry): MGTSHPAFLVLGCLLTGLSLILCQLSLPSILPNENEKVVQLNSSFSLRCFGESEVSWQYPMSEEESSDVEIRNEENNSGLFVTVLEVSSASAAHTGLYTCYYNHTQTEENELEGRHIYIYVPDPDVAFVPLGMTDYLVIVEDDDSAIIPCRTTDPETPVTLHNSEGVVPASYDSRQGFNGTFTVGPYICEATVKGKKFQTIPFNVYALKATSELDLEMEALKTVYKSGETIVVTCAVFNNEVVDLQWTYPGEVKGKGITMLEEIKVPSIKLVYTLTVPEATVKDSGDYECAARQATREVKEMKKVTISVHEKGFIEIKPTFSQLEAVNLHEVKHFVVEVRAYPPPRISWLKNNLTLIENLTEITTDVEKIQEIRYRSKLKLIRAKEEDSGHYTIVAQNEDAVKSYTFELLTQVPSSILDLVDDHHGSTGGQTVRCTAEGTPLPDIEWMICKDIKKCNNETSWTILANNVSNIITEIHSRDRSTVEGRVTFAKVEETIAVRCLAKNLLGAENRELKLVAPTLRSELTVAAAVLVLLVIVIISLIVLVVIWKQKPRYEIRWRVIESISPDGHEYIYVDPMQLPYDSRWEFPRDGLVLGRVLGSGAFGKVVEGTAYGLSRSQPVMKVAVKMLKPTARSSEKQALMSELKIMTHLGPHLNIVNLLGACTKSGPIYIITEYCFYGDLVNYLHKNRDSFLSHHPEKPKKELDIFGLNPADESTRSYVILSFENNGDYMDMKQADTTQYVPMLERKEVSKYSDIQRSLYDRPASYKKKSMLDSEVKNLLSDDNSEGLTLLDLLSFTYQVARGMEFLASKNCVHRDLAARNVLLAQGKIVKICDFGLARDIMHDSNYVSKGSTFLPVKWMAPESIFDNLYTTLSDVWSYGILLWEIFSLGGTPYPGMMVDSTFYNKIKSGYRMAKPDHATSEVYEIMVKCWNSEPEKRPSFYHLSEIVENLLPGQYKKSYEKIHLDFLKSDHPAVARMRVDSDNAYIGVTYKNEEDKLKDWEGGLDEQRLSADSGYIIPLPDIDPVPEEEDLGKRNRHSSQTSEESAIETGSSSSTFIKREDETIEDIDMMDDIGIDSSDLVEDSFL

Consider `COc1cc2nccc(Oc3ccc(NC(=O)NC4CC4)c(Cl)c3)c2cc1C(N)=O` [LENVATINIB], for which the results for the concentration for half-maximal inhibition (IC50) in [1] and in data set [2] were 39 nM and 51 nM, respectively.

Turning to `CCn1c(N)c(C(=O)NC)c(=O)c2ccc(C#C[C@@](C)(O)COC)nc21`, the Activity result in data set [3], in data set [4], in data set [6], in data set [7], in data set [8] and in data set [9] was “Toxic” in each case. Besides, the Activity entry in data set [12], in data set [14], in data set [16], in [17], in data set [18] and in data set [21] was “Toxic” each time. For the same molecule, the outcome with HDLEC [5], in the data set on HDLEC [13], in the data set with MDA-MB-231 [15] and in the data set with HDLEC [20] was Active. Also, the IC50 was more than 50 µM in the data set on MDA-MB-436, 720 nM in data set [10], more than 50 µM in the data set with MDA-MB-231 [11] and 307 nM in data set [19].

Regarding `CNC(=O)c1cc(COc2nnc(Nc3ccc(Cl)cc3)c3ccoc23)ccn1` [TELATINIB], the results for the IC50 in data set [22] and in data set [1] were 1 nM and 15 nM, respectively.

With `C=CS(=O)(=O)N1CCN(c2nc(OC[C@H]3CCCN3C)nc3sc(-c4ccc(C#N)cc4)cc23)CC1`, the IC50 in the data set on MDA-MB-436 was 2.29 µM; in the data set with MDA-MB-231 [11], 3.01 µM.

On to `C=CS(=O)(=O)N1CCN(c2ncnc3sc(-c4cccc5ncccc45)cc23)CC1`, for which the IC50 in the data set with MDA-MB-436 came to 25.9 µM; in the data set on MDA-MB-231 [11] it was 21 µM.

On to `CN1CCN(c2ccc(-c3cc4c(N5CCN(S(=O)(=O)N6CCCCC6)CC5)ncnc4s3)cc2)CC1`, for which the IC50 worked out at 7.57 µM with MDA-MB-436 and 8.13 µM in the data set on MDA-MB-231 [11].

Turning to `COc1ccccc1NC(=O)N1CCN(c2ncnc3sc(-c4ccc(N5CCN(C)CC5)cc4)cc23)CC1`, the IC50 in the data set on MDA-MB-436 came out at 26.3 µM; in the data set with MDA-MB-231 [11], 23.2 µM.

In the case of `C=CS(=O)(=O)N1CCN(c2ccn3ncc(-c4ccccc4)c3n2)CC1`, the IC50 was 19.5 µM in the data set on MDA-MB-436 and 38.3 µM in the data set with MDA-MB-231 [11].

Take `C=CS(=O)(=O)N1CCN(c2ncnc3sc(-c4ccccc4)cc23)CC1`: the figures for the IC50 in the data set with MDA-MB-436 and in the data set on MDA-MB-231 [11] were 21.1 µM and 54.2 µM, respectively.

On to `CN1CCN(c2ccc(-c3cc4c(N5CCN(C(=O)Nc6ccc(Cl)cc6)CC5)ncnc4s3)cc2)CC1`, for which the IC50 in the data set on MDA-MB-436 was 9.27 µM; in the data set on MDA-MB-231 [11], 5.44 µM.

For orientation: IC50 means the midpoint of a concentration-inhibition curve.
